One assay addresses T1, human GLP-1 R (Homo sapiens, UniProt P43220).
T1 construct: expressed in transfected cells
Kind of assay: Human GLP-1 receptor (GLP-1 R) activity assay, cAMP induction (AlphaScreen) in HEK293 cells. Particulars: read-out: hGLP1-R cAMP EC50 average value. The format is cell-based. Here is the method:
(§1) Human GIP Receptor (GIP R) and GLP-1 Receptor (GLP-1 R) Activity Assay
(§2) In vitro effects of peptide conjugates of the invention were assessed by measuring the induction of cAMP following stimulation of the respective receptor by GIP, GLP1 or analogues of these, as outlined in the invention, using the AlphaSceen® cAMP kit from Perkin-Elmer according to instructions. Briefly, HEK293 cells expressing the human GIP R or GLP-1 R (stable cell lines generated through transfection of the cDNA for human GIP R or GLP-1 and selection of stable clones) were seeded at 30,000 cells/well in 96-well microtiter plates coated with 0.01% poly-L-lysine, and grown for 1 day in culture in 200 μl growth medium (DMEM, 10% FCS, Penicillin (100 IU/ml), Streptomycin (100 μg/ml)). On the day of analysis, growth medium was removed and the cells were washed once with […] Tyrode's buffer (Tyrode's Salts (9.6 g/l), 10 mM HEPES, pH 7.4). […] The Assay buffer was removed and cells are lysed in 80 μl Lysis buffer (0.1% w/v BSA, 5 mM HEPES, 0.3% v/v Tween-20) per well. From each well 10 μl lysed cells was transferred to a 384-well plate and mixed with 15 μl bead-mix (1 Unit/15 μl anti-cAMP Acceptor Beads, 1 Unit/15 μl Donor Beads, and 1 Unit/15 μl Biotinylated cAMP in Assay Buffer). The plates were mixed and incubated in the dark for an hour at room temperature before measuring using an Envision™ plate reader (Perkin-Elmer).
(§3) The resulting cAMP curves were plotted as absolute cAMP concentrations (nM) over log (test compound concentration) and analyzed using the curve fitting program XLfit.
(§4) Parameters calculated to describe both the potency as well as the agonistic activity of each test compound on the receptors were:
(§5) EC50, a concentration resulting in a half-maximal elevation of cAMP levels, reflecting the potency of the test compound.
In general terms: Bead proximity is the source of the signal in Alpha formats.

The next assay addresses T2, human GIP R (Homo sapiens, UniProt P48546).
T2 construct: expressed in transfected cells
T2 sequence (P48546 22-466): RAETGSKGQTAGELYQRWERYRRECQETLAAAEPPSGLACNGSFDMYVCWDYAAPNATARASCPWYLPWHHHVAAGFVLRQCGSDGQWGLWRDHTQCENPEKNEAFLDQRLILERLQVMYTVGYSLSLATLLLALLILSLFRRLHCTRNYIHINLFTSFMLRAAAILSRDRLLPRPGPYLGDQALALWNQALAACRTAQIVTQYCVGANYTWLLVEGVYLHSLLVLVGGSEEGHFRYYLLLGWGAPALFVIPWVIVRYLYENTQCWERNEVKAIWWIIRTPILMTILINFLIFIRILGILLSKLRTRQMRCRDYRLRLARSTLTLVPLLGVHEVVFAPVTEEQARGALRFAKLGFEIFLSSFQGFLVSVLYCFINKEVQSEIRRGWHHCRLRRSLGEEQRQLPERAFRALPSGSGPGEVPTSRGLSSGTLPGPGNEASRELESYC
Briefly: Human GIP receptor (GIP R) activity assay, cAMP induction (AlphaScreen) in HEK293 cells. It counts as cell-based. Particulars: read-out: hGIP-R cAMP EC50 average value. Here is the method: as §1, §2, §3, §4, §5

Where [1] appears, read: Table 2, HEK293 cells expressing human GLP-1 R.
[2] abbreviates: Table 2a, secondary assay study.
[3] abbreviates: Table 2, HEK293 cells expressing human GIP R.
The mark [4] stands for this setting: Table 3, most comprehensive data.

The values below come from patent US10093713B2, “GIP-GLP-1 dual agonist compounds and methods” (priority 2013, dated 2018).

Read-outs that look alike come from different tables or passages of the source. *1 amine or outer side, *2 acyl side, *3 side chain or, on linkers, in order; H or OH if unused. Where a SMILES comes first, the peptide text is derived from it. Side-chain parts run from the residue outwards. [ ]: non-standard residue; d: D form. The star is where a group is joined. C18 diacid = O=C(O)CCCCCCCCCCCCCCCCC(=O)*; γGlu = O=C(O)[C@H](CCC(=O)[*:2])N[*:1]; Dap = NC[C@H](N)C(=O)O; AEEA = NCCOCCOCC(=O)O; Aib = CC(C)(N)C(=O)O

T1 sequence (P43220 24-463): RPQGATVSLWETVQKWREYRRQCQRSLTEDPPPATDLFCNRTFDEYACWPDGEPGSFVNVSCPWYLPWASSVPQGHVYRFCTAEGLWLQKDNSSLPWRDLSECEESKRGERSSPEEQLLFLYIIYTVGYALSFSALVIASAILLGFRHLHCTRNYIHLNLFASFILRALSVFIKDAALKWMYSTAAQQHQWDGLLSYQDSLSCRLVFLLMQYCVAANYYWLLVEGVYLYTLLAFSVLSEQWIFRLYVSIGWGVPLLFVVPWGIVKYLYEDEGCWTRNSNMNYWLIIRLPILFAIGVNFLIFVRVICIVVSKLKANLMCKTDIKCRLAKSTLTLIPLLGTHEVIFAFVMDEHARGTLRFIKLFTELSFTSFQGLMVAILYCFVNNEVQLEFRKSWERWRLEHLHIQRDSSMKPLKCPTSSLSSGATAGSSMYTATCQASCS

The term EC50 denotes the concentration giving half of the maximal effect. On to `CC[C@H](C)[C@H](NC(=O)[C@H](CO)NC(=O)[C@H](Cc1ccc(O)cc1)NC(=O)[C@H](CC(=O)O)NC(=O)[C@H](CO)NC(=O)[C@@H](NC(=O)[C@H](Cc1ccccc1)NC(=O)[C@@H](NC(=O)CNC(=O)[C@H](CCC(=O)O)NC(=O)C(C)(C)NC(=O)[C@@H](N)Cc1ccc(O)cc1)[C@@H](C)O)[C@@H](C)O)C(=O)N[C@@H](Cc1ccc(O)cc1)C(=O)N[C@@H](CC(C)C)C(=O)N[C@@H](CC(=O)O)C(=O)N[C@@H](CCCCN)C(=O)N[C@@H](CCCCNC(=O)COCCOCCNC(=O)COCCOCCNC(=O)CCCCCCCCCCCCCCCCC(=O)O)C(=O)N[C@@H](C)C(=O)N[C@@H](CCC(N)=O)C(=O)N[C@@H](CCCNC(=N)N)C(=O)N[C@@H](C)C(=O)N[C@@H](Cc1ccccc1)C(=O)N[C@H](C(=O)N[C@@H](CCC(=O)O)C(=O)N[C@@H](Cc1c[nH]c2ccccc12)C(=O)N[C@@H](CC(C)C)C(=O)N[C@@H](CC(C)C)C(=O)N[C@@H](C)C(=O)N[C@@H](CCC(N)=O)C(=O)NCC(=O)N1CCC[C@H]1C(=O)N[C@@H](CO)C(=O)N[C@@H](CO)C(=O)NCC(=O)N[C@@H](C)C(=O)N1CCC[C@H]1C(=O)N1CCC[C@H]1C(=O)N1CCC[C@H]1C(=O)N[C@@H](CO)C(N)=O)C(C)C` [Compound 5] (H-Y[Aib]EGTFTSDYSIYLDKK([AEEA-AEEA-C18 diacid])AQRAFVEWLLAQGPSSGAPPPS-NH2), for which the concentration giving a half-maximal response (EC50) on human GLP-1 R (setting [1]) turned out to be 14 pM; at human GLP-1 R (setting [2]), 14 pM; at human GIP R (setting [3]), 12 pM; on human GIP R (setting [2]) it was 11 pM.

As for `CC[C@H](C)[C@H](NC(=O)[C@H](CO)NC(=O)[C@H](Cc1ccc(O)cc1)NC(=O)[C@H](CC(=O)O)NC(=O)[C@H](CO)NC(=O)[C@@H](NC(=O)[C@H](Cc1ccccc1)NC(=O)[C@@H](NC(=O)CNC(=O)[C@H](CCC(=O)O)NC(=O)C(C)(C)NC(=O)[C@@H](N)Cc1ccc(O)cc1)[C@@H](C)O)[C@@H](C)O)C(=O)N[C@@H](Cc1ccc(O)cc1)C(=O)N[C@@H](CC(C)C)C(=O)N[C@@H](CC(=O)O)C(=O)N[C@@H](CCCCN)C(=O)N[C@@H](CCCCNC(=O)COCCOCCNC(=O)COCCOCCNC(=O)COCCOCCNC(=O)CC[C@H](NC(=O)CCCCCCCCCCCCCCCCC(=O)O)C(=O)O)C(=O)N[C@@H](C)C(=O)N[C@@H](CCC(N)=O)C(=O)N[C@@H](CCCNC(=N)N)C(=O)N[C@@H](C)C(=O)N[C@@H](Cc1ccccc1)C(=O)N[C@H](C(=O)N[C@@H](CCC(=O)O)C(=O)N[C@@H](Cc1c[nH]c2ccccc12)C(=O)N[C@@H](CC(C)C)C(=O)N[C@@H](CC(C)C)C(=O)N[C@@H](C)C(=O)N[C@@H](CCC(N)=O)C(=O)NCC(=O)N1CCC[C@H]1C(=O)N[C@@H](CO)C(=O)N[C@@H](CO)C(=O)NCC(=O)N[C@@H](C)C(=O)N1CCC[C@H]1C(=O)N1CCC[C@H]1C(=O)N1CCC[C@H]1C(=O)N[C@@H](CO)C(N)=O)C(C)C` [Compound 6], the 50% effective concentration (EC50) on human GLP-1 R (setting [1]) was 16 pM; on human GIP R (setting [3]), 4.9 pM; on human GIP R (setting [2]), 5 pM; at human GIP R (setting [4]), 5 pM.

Regarding `CC[C@H](C)[C@H](NC(=O)[C@H](CO)NC(=O)[C@H](Cc1ccc(O)cc1)NC(=O)[C@H](CC(=O)O)NC(=O)[C@H](CO)NC(=O)[C@@H](NC(=O)[C@H](Cc1ccccc1)NC(=O)[C@@H](NC(=O)CNC(=O)[C@H](CCC(=O)O)NC(=O)C(C)(C)NC(=O)[C@@H](N)Cc1ccc(O)cc1)[C@@H](C)O)[C@@H](C)O)C(=O)N[C@@H](Cc1ccc(O)cc1)C(=O)N[C@@H](CC(C)C)C(=O)N[C@@H](CC(=O)O)C(=O)N[C@@H](CCCCN)C(=O)N[C@@H](CCCCNC(=O)COCCOCCNC(=O)COCCOCCNC(=O)[C@H](CN)NC(=O)CCCCCCCCCCCCCCCCC(=O)O)C(=O)N[C@@H](C)C(=O)N[C@@H](CCC(N)=O)C(=O)N[C@@H](CCCNC(=N)N)C(=O)N[C@@H](C)C(=O)N[C@@H](Cc1ccccc1)C(=O)N[C@H](C(=O)N[C@@H](CCC(=O)O)C(=O)N[C@@H](Cc1c[nH]c2ccccc12)C(=O)N[C@@H](CC(C)C)C(=O)N[C@@H](CC(C)C)C(=O)N[C@@H](C)C(=O)N[C@@H](CCC(N)=O)C(=O)NCC(=O)N1CCC[C@H]1C(=O)N[C@@H](CO)C(=O)N[C@@H](CO)C(=O)NCC(=O)N[C@@H](C)C(=O)N1CCC[C@H]1C(=O)N1CCC[C@H]1C(=O)N1CCC[C@H]1C(=O)N[C@@H](CO)C(N)=O)C(C)C` [Compound 7] (H-Y[Aib]EGTFTSDYSIYLDKK([AEEA-AEEA-Dap-C18 diacid])AQRAFVEWLLAQGPSSGAPPPS-NH2), the EC50 at human GLP-1 R (setting [1]) turned out to be 12 pM; on human GIP R (setting [3]) it was 11 pM.

With `CC[C@H](C)[C@H](NC(=O)[C@H](CO)NC(=O)[C@H](Cc1ccc(O)cc1)NC(=O)[C@H](CC(=O)O)NC(=O)[C@H](CO)NC(=O)[C@@H](NC(=O)[C@H](Cc1ccccc1)NC(=O)[C@@H](NC(=O)CNC(=O)[C@H](CCC(=O)O)NC(=O)[C@@H](C)NC(=O)[C@@H](N)Cc1ccc(O)cc1)[C@@H](C)O)[C@@H](C)O)C(=O)N[C@@H](Cc1ccc(O)cc1)C(=O)N[C@@H](CC(C)C)C(=O)N[C@@H](CC(=O)O)C(=O)N[C@@H](CCCCN)C(=O)N[C@@H](CCCCNC(=O)COCCOCCNC(=O)COCCOCCNC(=O)CC[C@H](NC(=O)CCCCCCCCCCCCCCCCC(=O)O)C(=O)O)C(=O)N[C@@H](C)C(=O)N[C@@H](CCC(N)=O)C(=O)N[C@@H](CCCNC(=N)N)C(=O)N[C@@H](C)C(=O)N[C@@H](Cc1ccccc1)C(=O)N[C@H](C(=O)N[C@@H](CCC(=O)O)C(=O)N[C@@H](Cc1c[nH]c2ccccc12)C(=O)N[C@@H](CC(C)C)C(=O)N[C@@H](CC(C)C)C(=O)N[C@@H](C)C(=O)N[C@@H](CCC(N)=O)C(=O)NCC(=O)N1CCC[C@H]1C(=O)N[C@@H](CO)C(=O)N[C@@H](CO)C(=O)NCC(=O)N[C@@H](C)C(=O)N1CCC[C@H]1C(=O)N1CCC[C@H]1C(=O)N1CCC[C@H]1C(=O)N[C@@H](CO)C(N)=O)C(C)C` [Compound 9] (H-Y[dA]EGTFTSDYSIYLDKK([AEEA-AEEA-γGlu-C18 diacid])AQRAFVEWLLAQGPSSGAPPPS-NH2), the EC50 on human GLP-1 R (setting [1]) is 38 pM; on human GLP-1 R (setting [2]), 39 pM; on human GIP R (setting [3]) it was 8.8 pM; at human GIP R (setting [2]), 9 pM; at human GIP R (setting [4]), 9 pM.

Regarding `CC[C@H](C)[C@H](NC(=O)[C@H](CO)NC(=O)[C@H](Cc1ccc(O)cc1)NC(=O)[C@H](CC(=O)O)NC(=O)[C@H](CO)NC(=O)[C@@H](NC(=O)[C@H](Cc1ccccc1)NC(=O)[C@@H](NC(=O)CNC(=O)[C@H](CCC(=O)O)NC(=O)C(C)(C)NC(=O)[C@@H](N)Cc1ccc(O)cc1)[C@@H](C)O)[C@@H](C)O)C(=O)N[C@@H](Cc1ccc(O)cc1)C(=O)N[C@@H](CC(C)C)C(=O)N[C@@H](CCC(=O)O)C(=O)N[C@@H](CCCCN)C(=O)N[C@@H](CCCCNC(=O)COCCOCCNC(=O)COCCOCCNC(=O)CC[C@H](NC(=O)CCCCCCCCCCCCCCCCC(=O)O)C(=O)O)C(=O)N[C@@H](C)C(=O)N[C@@H](C)C(=O)N[C@@H](CCCCN)C(=O)N[C@@H](CCC(=O)O)C(=O)N[C@@H](Cc1ccccc1)C(=O)N[C@H](C(=O)N[C@@H](CCC(=O)O)C(=O)N[C@@H](Cc1c[nH]c2ccccc12)C(=O)N[C@@H](CC(C)C)C(=O)N[C@@H](CC(C)C)C(=O)N[C@@H](CO)C(=O)N[C@@H](C)C(=O)NCC(=O)N1CCC[C@H]1C(=O)N[C@@H](CO)C(=O)N[C@@H](CO)C(=O)NCC(=O)N[C@@H](C)C(=O)N1CCC[C@H]1C(=O)N1CCC[C@H]1C(=O)N1CCC[C@H]1C(=O)N[C@@H](CO)C(N)=O)C(C)C` [Compound 10] (H-Y[Aib]EGTFTSDYSIYLEKK([AEEA-AEEA-γGlu-C18 diacid])AAKEFVEWLLSAGPSSGAPPPS-NH2), the EC50 at human GLP-1 R (setting [1]) stood at 28 pM; on human GLP-1 R (setting [2]), 29 pM; at human GIP R (setting [3]) it was 16 pM; on human GIP R (setting [2]), 16 pM.
